# Test results published in article PMC4386733 (Cell, 2013).
# Entries after “also recorded” stand apart in the source; their conditions may differ.
# How the values were obtained:
# THP1 cells = assay: CXCL10 ELISA in THP1 cells after cGAMP stimulation; format: cell-based, human; conditions: for EC50 comparison: Digitonin-mediated permeabilization
# hSTING^R232 [1] = biological target: T1, hSTING^R232 (Homo sapiens, UniProt Q86WV6, H232R); conditions: ITC, Chen laboratory; ref Zhang et al., 2013; cited from earlier work
# hSTING^H232 (aa 140–379) = hSTING^H232 (aa 140–379) (Homo sapiens, UniProt Q86WV6, H232R); assay: ITC binding to hSTING^H232; conditions: complex printed as hSTING^H232 in b72 (Figure 4C)
# hSTING^H232 = hSTING^H232 (Homo sapiens, UniProt Q86WV6); assay: IFNB1 luciferase reporter in HEK293T cells, hSTING^H232; conditions: cGAMP isomers and c[di-GMP] with digitonin, DMXAA in medium
# hSTING^R232/A162 = hSTING^R232/A162 (Homo sapiens, UniProt Q86WV6, H232R/S162A); assay: ITC binding to hSTING^R232/A162
# hSTING S162I mutant = hSTING S162I mutant (Homo sapiens, UniProt Q86WV6, S162I); assay: IFNB1 luciferase reporter in HEK293T cells, hSTING S162I; format: cell-based; conditions: HEK293T cellular assay
# mSting = conditions: ref Conlon et al., 2013; cited from earlier work
# hSTING = conditions: ref Conlon et al., 2013; cited from earlier work
# [2] = biological target: hSTING^H232/A162 (S162A mutant) (Homo sapiens, UniProt Q86WV6, S162A); assay: ITC binding to S162A mutant of hSTING^H232
# BMDMs = assay: Western blot of Tbk1 and Irf3 phosphorylation in BMDMs; format: cell-based, mouse; conditions: 2 and 4 hr after treatment, compared to the two other isomers
# [3] = tested on: bone-marrow-derived macrophages (BMDMs); conditions: 20 µM added to medium, 4 hr, relative to mock treatment
# hSTING^R232 [4] = biological target: T1, hSTING^R232; assay: IFNB1 luciferase reporter in HEK293T cells, hSTING^R232; conditions: digitonin delivery
# hSTING^THP1 = hSTING^THP1 (Homo sapiens, UniProt Q86WV6, G230A/H232R/H72R/R293Q); assay: IFNB1 luciferase reporter in HEK293T cells, hSTING^THP1; conditions: digitonin delivery, c[di-GMP] 5 and 10 µM
# [5] = addition to medium without Digitonin, 18 hr
# Chain of hSTING^H232 (Q86WV6 whole entry): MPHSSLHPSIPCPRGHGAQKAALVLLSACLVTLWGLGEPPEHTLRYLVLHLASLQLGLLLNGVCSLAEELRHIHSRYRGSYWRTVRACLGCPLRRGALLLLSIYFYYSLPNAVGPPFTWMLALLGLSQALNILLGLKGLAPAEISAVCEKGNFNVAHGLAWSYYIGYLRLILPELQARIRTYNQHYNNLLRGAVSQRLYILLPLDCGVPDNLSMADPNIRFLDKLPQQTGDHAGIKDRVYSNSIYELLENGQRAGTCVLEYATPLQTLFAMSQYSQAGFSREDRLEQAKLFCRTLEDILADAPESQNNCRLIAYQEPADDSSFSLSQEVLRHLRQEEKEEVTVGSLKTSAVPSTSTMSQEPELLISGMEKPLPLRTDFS
# Chain of hSTING^R232/A162 (Q86WV6 140-379 S162A/H232R): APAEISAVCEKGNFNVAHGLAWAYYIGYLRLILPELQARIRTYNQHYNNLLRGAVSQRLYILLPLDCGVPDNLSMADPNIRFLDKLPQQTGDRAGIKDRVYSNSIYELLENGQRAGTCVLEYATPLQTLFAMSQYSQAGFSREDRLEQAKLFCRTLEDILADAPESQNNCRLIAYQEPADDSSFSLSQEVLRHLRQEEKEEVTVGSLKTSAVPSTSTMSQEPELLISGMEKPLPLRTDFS
# Chain of hSTING^H232/A162 (S162A mutant) (Q86WV6 140-379 S162A): as the sequence (Q86WV6 140-379 S162A/H232R) above, with R93H counted along it
# Chain of hSTING^THP1 (Q86WV6 whole entry H72R/G230A/H232R/R293Q): as the sequence (Q86WV6 whole entry) above, with H72R, G230A, H232R, R293Q counted along it
# T1 sequence (Q86WV6 whole entry H232R, the tested form may be a part): as the sequence (Q86WV6 whole entry) above, with H232R counted along it
# Chain of hSTING^H232 (aa 140–379) (Q86WV6 140-379 H232R): as the sequence (Q86WV6 140-379 S162A/H232R) above, with A23S counted along it
# Chain of hSTING S162I mutant (Q86WV6 whole entry S162I): as the sequence (Q86WV6 whole entry) above, with S162I counted along it
smiles,measurement,setting,value
Nc1nc2c(ncn2[C@@H]2O[C@@H]3COP(=O)(O)O[C@@H]4[C@H](O)[C@@H](COP(=O)(O)O[C@@H]2[C@@H]3O)O[C@H]4n2cnc3c(N)ncnc32)c(=O)[nH]1,EC50 comparison,THP1 cells,no difference in the EC50 values
same,"stimulation more effective than c[G(2′,5′)pA(3′,5′)p]",THP1 cells; [5],2.9 fold
same,"stimulation more effective than c[G(3′,5′)pA(3′,5′)p]",THP1 cells; [5],4.8 fold
same,Kd,hSTING^R232 [1],280 nM
same,Kd,hSTING^H232 (aa 140–379),170 nM
same,IFN reporter response,hSTING^H232,no significant differences in stimulation
"Cc1ccc2c(=O)c3cccc(CC(=O)O)c3oc2c1C [DMXAA, 5,6-dimethylxanthenone-4-acetic acid]",binding (ITC),hSTING^R232/A162; 25°C,binding
same,stoichiometry N value of binding curve,hSTING^R232/A162; expected 1,~1.5
same,IFN induction,hSTING S162I mutant,IFN induction was not observed
same,activation of mSting,mSting,activates mSting
same,effect on hSTING,hSTING,no effect on hSTING
same,binding (ITC),[2]; 25°C,binding
same,stoichiometry N value of binding curve,[2]; expected 1,~1.5
same,IFN reporter response,hSTING^H232,nonresponsive
"Nc1nc2c(ncn2[C@@H]2O[C@@H]3COP(=O)(O)O[C@H]4[C@@H](O)[C@H](n5cnc6c(N)ncnc65)O[C@@H]4COP(=O)(O)O[C@@H]2[C@@H]3O)c(=O)[nH]1 [c[G(2′,5′)pA(3′,5′)p]]",EC50 comparison,THP1 cells,no difference in the EC50 values
"Nc1nc2c(ncn2[C@@H]2O[C@@H]3COP(=O)(O)O[C@H]4[C@@H](O)[C@H](n5cnc6c(N)ncnc65)O[C@@H]4COP(=O)(O)O[C@H]3[C@H]2O)c(=O)[nH]1 [c[G(3′,5′)pA(3′,5′)p]]",Tbk1 and Irf3 protein phosphorylation,BMDMs,highest levels of Tbk1 and Irf3 protein phosphorylation
same,Ccl5 mRNA level increase,[3],38 fold
same,Ifnb1 mRNA level increase,[3],1024 fold
same,Il6 mRNA level increase,[3],2624 fold
Nc1nc2c(ncn2[C@@H]2O[C@@H]3COP(=O)(O)O[C@H]4[C@@H](O)[C@H](n5cnc6c(=O)[nH]c(N)nc65)O[C@@H]4COP(=O)(O)O[C@H]3[C@H]2O)c(=O)[nH]1 [c[di-GMP]],IFN reporter response,hSTING^H232,nonresponsive
same,IFN reporter response,hSTING^R232 [4],residual response to high concentrations of c[di-GMP]
same,IFN reporter response,hSTING^THP1,residual response to high concentrations of c[di-GMP]; also recorded: reduced IFN-pathway activation
